Laboratory results taken from patent publication US12382955B2, “Peroxyformic acid compositions for membrane filtration cleaning in energy services” (priority 2016, dated 2025).

Columns and labels:
[1] = tested on: oil and gas biofilm; assay: Biofilm percent reductions (Example 5)
[2] = Membrane compatibility, simulated exposure soak, clean water flux and salt rejection (Example 4); conditions: Koch HRX, PFA 300 ppm, 77 F
Procedure: The effects of PFA on reverse osmosis members which contain a polyamide structure in comparison with known control chemicals were tested. Three different membranes were tested including Koch HRX, Hydranautics CPA5 and Hydranautics ESPA2+. Membranes were soaked in duplicate, in chemistries according to Table 4.
Membranes were then conditioned in Ultrasil 110 at a pH of 11 for 90 minutes at 50° C., followed by a rinse in DI water.
Each of the chemistries, with the exception of PFA was refreshed daily. PFA was refreshed hourly. After the simulated exposure the membranes are rinsed with DI water and placed on the Flat Sheet Membrane skid (Model M20). The membranes were rinsed with DI water for 24 hours at standard UF pressure and temperature. Once 24 hours was completed the membranes were subjected to alkaline conditioning step until solution pH is 11. 15.14 grams of NaCl was added to the recirculating water (2000 ppm NaCl) and the system was allowed to continue circulating. The conductivity of each permeate tube and feed was then measured and recorded and shown as percent rejection. The percent rejection was determined by (conductivity of the feed−conductivity of the permeate)/(conductivity of the feed).

Compound	Biofilm percent reductions, ATP ([1]; 250 ppm) [%]	Biofilm percent reductions, Total biofilm ([1]; 250 ppm) [%]	inhibition at 250 ppm ([1]; read-out: Biofilm percent reductions, Viable biofilm) [%]	Biofilm percent reductions, ATP ([1]; 75 ppm active) [%]	Biofilm percent reductions, Total biofilm ([1]; 75 ppm active) [%]	Biofilm percent reductions, Viable biofilm ([1]; 75 ppm active) [%]	Water Flux (LMH) PFA 1 YR ([2]; simulated 1 year, 78 hr soak) [LMH]	Water Flux (LMH) PFA 3 YR ([2]; simulated 3 years, 234 hr soak) [LMH]
O=CCCCC=O [Glutaraldehyde, reference compound]	94	58	81	–	–	–	–	–
O=COO [PFA, peroxyformic acid]	–	–	–	99	85	96	65.40	75.84
